{"source": "patent US20260317320A1", "about": "“C5AR1 ANTAGONISTS AND USES THEREOF” (Vanqua Bio, Inc., priority 2022, published 2026)", "key": {"[1]": {"target": "T1, complement C5a receptor 1 (C5aR1) (Homo sapiens, UniProt P21730)", "T1 construct": "β-galactosidase fragment (PathHunter enzyme complementation); host or cells: CHO-K1 (PathHunter CHO-K1 C5aR1 β-arrestin cell line)", "T1 sequence (P21730 1-350)": "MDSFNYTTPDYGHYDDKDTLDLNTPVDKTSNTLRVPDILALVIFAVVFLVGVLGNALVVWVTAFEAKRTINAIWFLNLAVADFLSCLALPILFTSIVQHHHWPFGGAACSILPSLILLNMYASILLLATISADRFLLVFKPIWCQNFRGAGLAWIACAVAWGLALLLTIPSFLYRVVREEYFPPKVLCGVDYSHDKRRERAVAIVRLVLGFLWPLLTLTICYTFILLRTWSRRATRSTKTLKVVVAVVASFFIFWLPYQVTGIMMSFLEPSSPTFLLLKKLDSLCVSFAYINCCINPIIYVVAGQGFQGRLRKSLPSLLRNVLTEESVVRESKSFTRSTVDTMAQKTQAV", "assay": "β-arrestin recruitment via C5aR1 activation in live CHO-K1 cells (PathHunter), antagonist mode", "assay_type": "cell-based", "details": "antagonist mode; recombinant hC5a (EC90) as competing natural agonist; live CHO-K1 cells; read-out: [Antagonist] B-arrestin2 recruitment: Average IC50; call rule not given here", "summary_of_the_method": "(§1)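 β-arrestin recruitment to C5aR1 in CHO-K1 cells is detected by enzyme-fragment complementation. Antagonism is measured against recombinant hC5a at its EC90; agonism is measured with compound alone. Potencies are grouped into IC50 categories.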"}, "[2]": {"target": "T1, complement C5a receptor 1 (C5aR1)", "assay": "β-arrestin recruitment via C5aR1 activation in live CHO-K1 cells (PathHunter), agonist mode", "assay_type": "cell-based", "summary_of_the_method": "as §1"}}, "note": "Where two headings read alike, the source gives them in different places."}
{"smiles": "Cc1cccc(F)c1[C@H]1CC[C@H](c2cc3ncc(CC(F)F)nc3n(Cc3ncccc3C(F)(F)F)c2=O)CC1", "note": "[compound 231, 3-(2,2-Difluoroethyl)-7-((1r,4r)-4-(2-fluoro-6-methylphenyl)cyclohexyl)-5-((3-(trifluoromethyl)pyridin-2-yl)methyl)pyrido[2,3-b]pyrazin-6(5H)-one]", "values": [{"measurement": "IC50", "setting": "[1]", "result": "< 500", "unit": "nM"}, {"measurement": "[Agonist] B-arrestin2 recruitment: Average EC50 (nM)", "setting": "[2]; at 10 μM", "result": "Non-Active at 10 μM"}]}
{"smiles": "Cc1cccc(F)c1N1CCC(c2nc3nccnc3n(Cc3ccccc3OC(F)F)c2=O)CC1", "note": "[compound 46, 1-(2-(difluoromethoxy)benzyl)-3-(1-(2-fluoro-6-methylphenyl)piperidin-4-yl)pyrazino[2,3-b]pyrazin-2(1H)-one]", "values": [{"measurement": "IC50", "setting": "[1]", "result": "500 to 5000", "unit": "nM"}, {"measurement": "[Agonist] B-arrestin2 recruitment: Average EC50 (nM)", "setting": "[2]", "result": "Non-Active"}]}
{"smiles": "Cc1cnc2cc([C@H]3CC[C@@H](c4c(C)cccc4F)CC3)c(=O)n(Cc3nccnc3C(F)F)c2n1", "note": "[148A, 5-((3-(Difluoromethyl)pyrazin-2-yl)methyl)-7-((1s,4s)-4-(2-fluoro-6-methylphenyl)cyclohexyl)-3-methylpyrido[2,3-b]pyrazin-6(5H)-one]", "values": [{"measurement": "IC50", "setting": "[1]", "result": "500 to 5000", "unit": "nM"}, {"measurement": "[Agonist] B-arrestin2 recruitment: Average EC50 (nM)", "setting": "[2]", "result": "Non-Active"}]}
{"smiles": "Cc1cnc2cc(C3CCN(c4c(C)cccc4F)CC3)c(=O)n([C@H]3CCC(F)(F)c4nccnc43)c2n1", "note": "[149B, (S)-5-(8,8-Difluoro-5,6,7,8-tetrahydroquinoxalin-5-yl)-7-(1-(2-fluoro-6-methylphenyl)piperidin-4-yl)-3-methylpyrido[2,3-b]pyrazin-6(5H)-one]", "values": [{"measurement": "IC50", "setting": "[1]", "result": "< 500", "unit": "nM"}, {"measurement": "[Agonist] B-arrestin2 recruitment: Average EC50 (nM)", "setting": "[2]", "result": "Non-Active"}]}
{"smiles": "Cc1cnc2cc([C@H]3CC[C@H](c4c(C)cccc4F)CC3)c(=O)n(Cc3nccnc3C3CC3)c2n1", "note": "[compound 221, 5-((3-Cyclopropylpyrazin-2-yl)methyl)-7-((1r,4r)-4-(2-fluoro-6-methylphenyl)cyclohexyl)-3-methylpyrido[2,3-b]pyrazin-6(5H)-one]", "values": [{"measurement": "IC50", "setting": "[1]", "result": "< 500", "unit": "nM"}, {"measurement": "[Agonist] B-arrestin2 recruitment: Average EC50 (nM)", "setting": "[2]; at 10 μM", "result": "Non-Active at 10 μM"}]}
{"smiles": "Cc1cnc2cc(N3CCN(c4cc(F)cnc4C)CC3)c(=O)n(Cc3nccnc3C(F)(F)F)c2n1", "note": "[compound 59, 7-(4-(5-Fluoro-2-methylpyridin-3-yl)piperazin-1-yl)-3-methyl-5-((3-(trifluoromethyl)pyrazin-2-yl)methyl)pyrido[2,3-b]pyrazin-6(5H)-one]", "values": [{"measurement": "IC50", "setting": "[1]", "result": "> 100000", "unit": "nM"}, {"measurement": "[Agonist] B-arrestin2 recruitment: Average EC50 (nM)", "setting": "[2]", "result": "Non-Active"}]}
{"smiles": "Cc1cnc2cc([C@H]3CC[C@H](c4cnccc4C(F)(F)F)CC3)c(=O)n(Cc3ncccc3C(F)(F)F)c2n1", "note": "[150B, 3-Methyl-5-((3-(trifluoromethyl)pyridin-2-yl)methyl)-7-((1r,4r)-4-(4-(trifluoromethyl)pyridin-3-yl)cyclohexyl)pyrido[2,3-b]pyrazin-6(5H)-one]", "values": [{"measurement": "IC50", "setting": "[1]", "result": "< 500", "unit": "nM"}, {"measurement": "[Agonist] B-arrestin2 recruitment: Average EC50 (nM)", "setting": "[2]", "result": "Non-Active"}]}
{"smiles": "Cc1cnc2cc([C@H]3CC[C@H](c4cnccc4C(F)F)CC3)c(=O)n(Cc3ncccc3C(F)(F)F)c2n1", "note": "[compound 178, 7-((1r,4r)-4-(4-(Difluoromethyl)pyridin-3-yl)cyclohexyl)-3-methyl-5-((3-(trifluoromethyl)pyridin-2-yl)methyl)pyrido[2,3-b]pyrazin-6(5H)-one]", "values": [{"measurement": "IC50", "setting": "[1]", "result": "< 500", "unit": "nM"}, {"measurement": "[Agonist] B-arrestin2 recruitment: Average EC50 (nM)", "setting": "[2]", "result": "Non-Active"}]}
{"smiles": "Cc1cnc2cc(C3CCN(c4nn(C)c5ccccc45)CC3)c(=O)n(Cc3ncccc3C(F)(F)F)c2n1", "note": "[compound 186, 3-Methyl-7-(1-(1-methyl-1H-indazol-3-yl)piperidin-4-yl)-5-((3-(trifluoromethyl)pyridin-2-yl)methyl)pyrido[2,3-b]pyrazin-6(5H)-one]", "values": [{"measurement": "IC50", "setting": "[1]", "result": "5000 to 100000", "unit": "nM"}, {"measurement": "[Agonist] B-arrestin2 recruitment: Average EC50 (nM)", "setting": "[2]; at 10 μM", "result": "Non-Active at 10 μM"}]}
{"smiles": "Cc1ccc2cc([C@H]3CC[C@H](c4c(C)cccc4F)CC3)c(=O)n(Cc3nccnc3OCC(F)(F)F)c2n1", "note": "[compound 264, 7-Methyl-3-[(1r,4r)-4-(2-fluoro-6-tolyl)cyclohexyl]-1-{[3-(2,2,2-trifluoroethoxy)-2-pyrazinyl]methyl}-1,8-diaza-2(1H)-naphthalenone]", "values": [{"measurement": "IC50", "setting": "[1]", "result": "< 500", "unit": "nM"}, {"measurement": "[Agonist] B-arrestin2 recruitment: Average EC50 (nM)", "setting": "[2]", "result": "Non-Active"}]}
{"smiles": "Cc1ccc2cc([C@H]3CC[C@H](c4cnccc4C(F)(F)F)CC3)c(=O)n(Cc3ncccc3C(C)(F)F)c2n1", "note": "[compound 254, 1-{[3-(1,1-Difluoroethyl)-2-pyridyl]methyl}-7-methyl-3-{(1r,4r)-4-[4-(trifluoromethyl)-3-pyridyl]cyclohexyl}-1,8-diaza-2(1H)-naphthalenone]", "values": [{"measurement": "IC50", "setting": "[1]", "result": "< 500", "unit": "nM"}, {"measurement": "[Agonist] B-arrestin2 recruitment: Average EC50 (nM)", "setting": "[2]", "result": "Non-Active"}]}
{"smiles": "COc1nccnc1Cn1c(=O)c(C2CCN(c3c(C)cccc3F)CC2)c(C)c2nccnc21", "note": "[compound 3, 7-(1-(2-Fluoro-6-methylphenyl)piperidin-4-yl)-5-((3-methoxypyrazin-2-yl)methyl)-8-methyl pyrido[2,3-b]pyrazin-6(5H)-one]", "values": [{"measurement": "IC50", "setting": "[1]", "result": "500 to 5000", "unit": "nM"}, {"measurement": "[Agonist] B-arrestin2 recruitment: Average EC50 (nM)", "setting": "[2]", "result": "Non-Active"}]}
{"smiles": "Cc1cnc2c(C)c(C3CCN(c4c(C)ccnc4F)CC3)c(=O)n(Cc3nccnc3C(F)(F)F)c2n1", "note": "[compound 63, 7-(1-(2-Fluoro-4-methylpyridin-3-yl)piperidin-4-yl)-3,8-dimethyl-5-((3-(trifluoromethyl)pyrazin-2-yl)methyl)pyrido[2,3-b]pyrazin-6(5H)-one]", "values": [{"measurement": "IC50", "setting": "[1]", "result": "500 to 5000", "unit": "nM"}, {"measurement": "[Agonist] B-arrestin2 recruitment: Average EC50 (nM)", "setting": "[2]", "result": "Non-Active"}]}
{"smiles": "Cc1cnc2cc(N3CCN(c4c(C)cccc4F)CC3)c(=O)n(Cc3nccn(C(F)F)c3=O)c2n1", "note": "[161B, 5-((4-(Difluoromethyl)-3-oxo-3,4-dihydropyrazin-2-yl)methyl)-7-(4-(2-fluoro-6-methylphenyl)piperazin-1-yl)-3-methylpyrido[2,3-b]pyrazin-6(5H)-one]", "values": [{"measurement": "IC50", "setting": "[1]", "result": "5000 to 100000", "unit": "nM"}, {"measurement": "[Agonist] B-arrestin2 recruitment: Average EC50 (nM)", "setting": "[2]; at 10 μM", "result": "Non-Active at 10 μM"}]}
{"smiles": "Cc1cnc2cc(C3CCN(c4cnccc4C(F)F)CC3)c(=O)n(Cc3ncccc3C(F)(F)F)c2n1", "note": "[compound 162, 7-(1-(4-(Difluoromethyl)pyridin-3-yl)piperidin-4-yl)-3-methyl-5-((3-(trifluoromethyl)pyridin-2-yl)methyl)pyrido[2,3-b]pyrazin-6(5H)-one]", "values": [{"measurement": "IC50", "setting": "[1]", "result": "< 500", "unit": "nM"}, {"measurement": "[Agonist] B-arrestin2 recruitment: Average EC50 (nM)", "setting": "[2]", "result": "Non-Active"}]}
{"smiles": "Cc1cnc2cc([C@H]3CC[C@H](c4c(C)cccc4F)CC3)c(=O)n(Cc3ncccc3C(F)F)c2n1", "note": "[compound 176, 5-((3-(Difluoromethyl)pyridin-2-yl)methyl)-7-((1r,4r)-4-(2-fluoro-6-methylphenyl)cyclohexyl)-3-methylpyrido[2,3-b]pyrazin-6(5H)-one]", "values": [{"measurement": "IC50", "setting": "[1]", "result": "< 500", "unit": "nM"}, {"measurement": "[Agonist] B-arrestin2 recruitment: Average EC50 (nM)", "setting": "[2]", "result": "Non-Active"}]}
{"smiles": "Cc1ncc(F)cc1N1CCC(c2cc3nccnc3n(Cc3nccnc3C(F)(F)F)c2=O)CC1", "note": "[compound 45, 7-(1-(5-Fluoro-2-methylpyridin-3-yl)piperidin-4-yl)-5-((3-(trifluoromethyl)pyrazin-2-yl)methyl)pyrido[2,3-b]pyrazin-6(5H)-one]", "values": [{"measurement": "IC50", "setting": "[1]", "result": "> 100000", "unit": "nM"}, {"measurement": "[Agonist] B-arrestin2 recruitment: Average EC50 (nM)", "setting": "[2]", "result": "Non-Active"}]}
{"smiles": "Cc1cnc2cc([C@H]3CC[C@H](c4c(F)cccc4F)CC3)c(=O)n(Cc3ncccc3C(C)(F)F)c2n1", "note": "[compound 250, 5-((3-(1,1-Difluoroethyl)pyridin-2-yl)methyl)-7-((1r,4r)-4-(2,6-difluorophenyl)cyclohexyl)-3-methylpyrido[2,3-b]pyrazin-6(5H)-one]", "values": [{"measurement": "IC50", "setting": "[1]", "result": "< 500", "unit": "nM"}, {"measurement": "[Agonist] B-arrestin2 recruitment: Average EC50 (nM)", "setting": "[2]; at 10 μM", "result": "Non-Active at 10 μM"}]}
